# Source: patent US20260085067A1, “CYCLIC SULFONAMIDE RIBONUCLEOTIDE REDUCTASE (RNR) INHIBITORS AND USES THEREOF” (Boundless Bio, Inc., priority 2022, published 2026)
# What was measured:
# RNR (RNR1:RNR2 1:1) = biological target: T1, RNR (RNR1:RNR2 1:1) (Homo sapiens, UniProt P23921); experiment: RNR enzyme activity, rapid-fire mass spectrometry (RF/MS) assay; assay type: biochemical; details: [RNR] 50 nM, 1:1 RNR1:RNR2; CDP 5 μM; ATP 1 mM; 37° C., 45 min; compounds screened up to 50 μM
# T1 sequence (P23921 1-792): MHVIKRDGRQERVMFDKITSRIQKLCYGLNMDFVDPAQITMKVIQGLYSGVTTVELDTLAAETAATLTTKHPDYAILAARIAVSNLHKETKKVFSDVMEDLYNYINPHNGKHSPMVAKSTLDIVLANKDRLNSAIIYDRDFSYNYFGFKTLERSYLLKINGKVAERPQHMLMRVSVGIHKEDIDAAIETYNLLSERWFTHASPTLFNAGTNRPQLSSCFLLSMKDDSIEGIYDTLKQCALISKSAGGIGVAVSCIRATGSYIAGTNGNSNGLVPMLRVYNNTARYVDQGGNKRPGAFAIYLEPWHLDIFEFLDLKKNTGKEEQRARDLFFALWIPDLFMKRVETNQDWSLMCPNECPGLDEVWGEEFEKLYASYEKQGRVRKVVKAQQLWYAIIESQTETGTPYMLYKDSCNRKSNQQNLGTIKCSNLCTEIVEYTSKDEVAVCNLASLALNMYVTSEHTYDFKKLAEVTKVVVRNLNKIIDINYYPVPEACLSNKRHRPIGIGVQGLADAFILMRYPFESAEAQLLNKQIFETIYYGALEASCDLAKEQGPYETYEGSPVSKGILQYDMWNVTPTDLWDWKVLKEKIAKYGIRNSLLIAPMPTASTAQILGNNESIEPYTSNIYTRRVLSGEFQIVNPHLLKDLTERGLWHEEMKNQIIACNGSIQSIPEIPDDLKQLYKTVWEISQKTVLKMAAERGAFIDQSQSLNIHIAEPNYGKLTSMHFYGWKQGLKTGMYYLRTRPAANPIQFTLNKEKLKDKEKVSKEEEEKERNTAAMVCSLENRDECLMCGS
# Outline: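 Human RNR (50 nM final, RNR1:RNR2 1:1) pre-incubated 15 min at room temperature, then reacted 45 min at 37 °C with 5 μM CDP and 1 mM ATP, no NADPH. Reaction quenched with 6% HCOOH; product quantified by rapid-fire mass spectrometry.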
# [1] = system: pCHK1 (S345) in Colo320 DM cells; experiment: Alphalisa assay, detection of pCHK1 (S345) in Colo320 DM cells; assay type: cell-based, human; details: Homo sapiens, COLO 320DM, compound overnight (approximately 16 hours)
# Outline: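 Colo320 DM cells plated overnight, then exposed to compound for about 16 h at 37 °C (DMSO <0.5%). Cells lysed and phospho-CHK1 (S345) quantified by AlphaLisa SureFire with sequential 60 min acceptor and donor incubations at room temperature.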
SMILES,IC50 (RNR (RNR1:RNR2 1:1)) [µM],IC50 [1] [µM]
"Cc1ccc(F)c([C@@H](C)[C@@H](c2n[nH]c(=O)o2)N2CN(CCN(C)C)c3cc(Cl)ccc3S2(=O)=O)c1C [Example 38, 5-((1S,2R)-1-(6-chloro-4-(2-(dimethylamino)ethyl)-1,1-dioxido-3,4-dihydro-2H-benzo[e][1,2,4]thiadiazin-2-yl)-2-(6-fluoro-2,3-dimethylphenyl)propyl)-1,3,4-oxadiazol-2 (3H)-one]",< 0.02,≤ 1
Cc1ccc(F)c([C@H](C)[C@@H](c2n[nH]c(=O)o2)N2CN(C)c3cc(Cl)cc(C(=O)N(C)C)c3S2(=O)=O)c1C [Example 39],10 to 100,> 50
"Cc1ccc(F)c(C(C)[C@@H](c2n[nH]c(=O)o2)N2CCOc3c(ccc(Cl)c3C(C)(C)O)S2(=O)=O)c1C (stereo partly drawn) [Example 40, 5-((1S)-1-(7-chloro-6-(2-hydroxypropan-2-yl)-1,1-dioxido-3,4-dihydro-2H-benzo[b][1,4,5]oxathiazepin-2-yl)-2-(6-fluoro-2,3-dimethylphenyl)propyl)-1,3,4-oxadiazol-2 (3H)-one]",< 0.02,5 to 10
"Cc1ccc(F)c([C@@H](C)[C@@H](c2n[nH]c(=O)o2)N2CN(C(=O)C3CC3)c3cc(Cl)ccc3S2(=O)=O)c1C [Example 46, 5-((1S,2R)-1-(6-chloro-4-(cyclopropanecarbonyl)-1,1-dioxido-3,4-dihydro-2H-benzo[e][1,2,4]thiadiazin-2-yl)-2-(6-fluoro-2,3-dimethylphenyl)propyl)-1,3,4-oxadiazol-2 (3H)-one]",< 0.02,≤ 1
"Cc1ccc(F)c([C@@H](C)[C@@H](c2n[nH]c(=O)o2)N2CN(C3CCN(C)CC3)c3cc(Cl)ccc3S2(=O)=O)c1C [Example 47, 5-((1S,2R)-1-(6-chloro-4-(1-methylpiperidin-4-yl)-1,1-dioxido-3,4-dihydro-2H-benzo[e][1,2,4]thiadiazin-2-yl)-2-(6-fluoro-2,3-dimethylphenyl)propyl)-1,3,4-oxadiazol-2 (3H)-one]",< 0.02,1 to 5
"Cc1ccc(F)c([C@@H](C)[C@@H](c2n[nH]c(=O)o2)N2CN(C3CCCN(C)C3)c3cc(Cl)ccc3S2(=O)=O)c1C (stereo partly drawn) [Example 51, 5-((1S,2R)-1-(6-chloro-4-(1-methylpiperidin-3-yl)-1,1-dioxido-3,4-dihydro-2H-benzo[e][1,2,4]thiadiazin-2-yl)-2-(6-fluoro-2,3-dimethylphenyl)propyl)-1,3,4-oxadiazol-2 (3H)-one]",< 0.02,≤ 1
"CC(=O)N1CN([C@H](c2n[nH]c(=O)o2)[C@H](C)c2c(F)ccc(C)c2C)S(=O)(=O)c2ccc(Cl)cc21 [Example 56, 5-((1S,2R)-1-(4-acetyl-6-chloro-1,1-dioxido-3,4-dihydro-2H-benzo[e][1,2,4]thiadiazin-2-yl)-2-(6-fluoro-2,3-dimethylphenyl)propyl)-1,3,4-oxadiazol-2 (3H)-one]",< 0.02,1 to 5
"Cc1ccc(F)c([C@@H](C)[C@@H](c2n[nH]c(=O)o2)N2CN([C@H]3CCNC3)c3cc(Cl)ccc3S2(=O)=O)c1C [Example 59, 5-((1S,2R)-1-(6-chloro-1,1-dioxido-4-((S)-pyrrolidin-3-yl)-3,4-dihydro-2H-benzo[e][1,2,4]thiadiazin-2-yl)-2-(6-fluoro-2,3-dimethylphenyl)propyl)-1,3,4-oxadiazol-2 (3H)-one]",< 0.02,5 to 10

# The remaining lines, values ahead:
IC50 (RNR (RNR1:RNR2 1:1)) [µM],IC50 [1] [µM],SMILES
0.1 to 1,> 50,"Cc1ccc(F)c([C@@H](C)[C@@H](c2n[nH]c(=O)o2)N2COc3cc(Cl)cc(C(=O)N(C)C)c3S2(=O)=O)c1C [Example 41, 6-chloro-2-((1S,2R)-2-(6-fluoro-2,3-dimethylphenyl)-1-(5-oxo-4,5-dihydro-1,3,4-oxadiazol-2-yl)propyl)-N,N-dimethyl-2,3-dihydrobenzo[e][1,4,3]oxathiazine-8-carboxamide 1,1-dioxide]"
< 0.02,≤ 1,"Cc1ccc(F)c([C@@H](C)[C@@H](c2n[nH]c(=O)o2)N2CN(C3COC3)c3cc(Cl)ccc3S2(=O)=O)c1C [Example 42, 5-((1S,2R)-1-(6-chloro-4-(oxetan-3-yl)-1,1-dioxido-3,4-dihydro-2H-benzo[e][1,2,4]thiadiazin-2-yl)-2-(6-fluoro-2,3-dimethylphenyl)propyl)-1,3,4-oxadiazol-2 (3H)-one]"
< 0.02,≤ 1,"COCCN1CN([C@H](c2n[nH]c(=O)o2)[C@H](C)c2c(F)ccc(C)c2C)S(=O)(=O)c2ccc(Cl)cc21 [Example 45, 5-((1S,2R)-1-(6-chloro-4-(2-methoxyethyl)-1,1-dioxido-3,4-dihydro-2H-benzo[e][1,2,4]thiadiazin-2-yl)-2-(6-fluoro-2,3-dimethylphenyl)propyl)-1,3,4-oxadiazol-2 (3H)-one]"
< 0.02,≤ 1,"Cc1ccc(F)c([C@@H](C)[C@@H](c2n[nH]c(=O)o2)N2CN(CC3CCOC3)c3cc(Cl)ccc3S2(=O)=O)c1C (stereo partly drawn) [Example 49, 5-((1S,2R)-1-(6-chloro-1,1-dioxido-4-((tetrahydrofuran-3-yl)methyl)-3,4-dihydro-2H-benzo[e][1,2,4]thiadiazin-2-yl)-2-(6-fluoro-2,3-dimethylphenyl)propyl)-1,3,4-oxadiazol-2 (3H)-one]"
< 0.02,≤ 1,"Cc1ccc(F)c([C@@H](C)[C@@H](c2n[nH]c(=O)o2)N2CN(C[C@H]3CCCO3)c3cc(Cl)ccc3S2(=O)=O)c1C [Example 52, 5-((1S,2R)-1-(6-chloro-1,1-dioxido-4-(((R)-tetrahydrofuran-2-yl)methyl)-3,4-dihydro-2H-benzo[e][1,2,4]thiadiazin-2-yl)-2-(6-fluoro-2,3-dimethylphenyl)propyl)-1,3,4-oxadiazol-2 (3H)-one]"
< 0.02,1 to 5,"Cc1ccc(F)c([C@@H](C)[C@@H](c2n[nH]c(=O)o2)N2CCOc3c(ccc(Cl)c3CN(C)C)S2(=O)=O)c1C [Example 55, 5-((1S,2R)-1-(7-chloro-6-((dimethylamino)methyl)-1,1-dioxido-3,4-dihydro-2H-benzo[b][1,4,5]oxathiazepin-2-yl)-2-(6-fluoro-2,3-dimethylphenyl)propyl)-1,3,4-oxadiazol-2 (3H)-one]"
0.02 to 0.1,10 to 50,"Cc1ccc(F)c([C@@H](C)[C@@H](c2n[nH]c(=O)o2)N2CN(C3CNC3)c3cc(Cl)ccc3S2(=O)=O)c1C [Example 57, 5-((1S,2R)-1-(4-(azetidin-3-yl)-6-chloro-1,1-dioxido-3,4-dihydro-2H-benzo[e][1,2,4]thiadiazin-2-yl)-2-(6-fluoro-2,3-dimethylphenyl)propyl)-1,3,4-oxadiazol-2 (3H)-one]"
0.02 to 0.1,10 to 50,"Cc1ccc(F)c([C@@H](C)[C@@H](c2n[nH]c(=O)o2)N2CN([C@@H]3CCNC3)c3cc(Cl)ccc3S2(=O)=O)c1C [Example 58, 5-((1S,2R)-1-(6-chloro-1,1-dioxido-4-((R)-pyrrolidin-3-yl)-3,4-dihydro-2H-benzo[e][1,2,4]thiadiazin-2-yl)-2-(6-fluoro-2,3-dimethylphenyl)propyl)-1,3,4-oxadiazol-2 (3H)-one]"
0.1 to 1,10 to 50,"Cc1ccc(F)c([C@@H](C)[C@@H](c2n[nH]c(=O)o2)N2CN(C)c3c(ccc(Cl)c3CN3CCCCC3)S2(=O)=O)c1C [Example 61, 5-((1S,2R)-1-(6-chloro-4-methyl-1,1-dioxido-5-(piperidin-1-ylmethyl)-3,4-dihydro-2H-benzo[e][1,2,4]thiadiazin-2-yl)-2-(6-fluoro-2,3-dimethylphenyl)propyl)-1,3,4-oxadiazol-2 (3H)-one]"
< 0.02,≤ 1,"Cc1ccc(F)c([C@@H](C)[C@@H](c2n[nH]c(=O)o2)N2CN(C[C@@H]3CCCO3)c3cc(Cl)ccc3S2(=O)=O)c1C [Example 62, 5-((1S,2R)-1-(6-chloro-1,1-dioxido-4-(((S)-tetrahydrofuran-2-yl)methyl)-3,4-dihydro-2H-benzo[e][1,2,4]thiadiazin-2-yl)-2-(6-fluoro-2,3-dimethylphenyl)propyl)-1,3,4-oxadiazol-2 (3H)-one]"
< 0.02,≤ 1,"COCCN1CN([C@H](c2n[nH]c(=O)o2)[C@H](C)c2c(F)ccc(C)c2C)S(=O)(=O)c2ccc(Cl)nc21 [Example 63, 5-((1S,2R)-1-(6-chloro-4-(2-methoxyethyl)-1,1-dioxido-3,4-dihydro-2H-pyrido[2,3-e][1,2,4]thiadiazin-2-yl)-2-(6-fluoro-2,3-dimethylphenyl)propyl)-1,3,4-oxadiazol-2 (3H)-one]"
